The source of these data is patent US8535902B2, “Peptidase substrates” (bioMërieux, S.A., priority 2009, dated 2013).

Assay in all cases: Peptidase detection on Columbia medium with substrate, spot inoculation
Holding throughout (type): cell-based

Assay [1] has as its system Enterococcus faecalis NCTC 775. The note with it: 40 mg substrate in 400 ml Columbia medium, 24 hours at 37° C., visual reading. Here is the method: (§1) A weight of 40 mg of substrate was dissolved in 4 ml of dimethyl sulfoxide and added to 400 ml of previously autoclaved Columbia medium. The medium was distributed into Petri dishes 90 mm in diameter, in a proportion of 20 ml per dish. Seventeen strains of microorganisms stemming from collections and belonging to various species of bacteria and yeasts are inoculated in spots of approximately 10 000 colony-forming units. The media are incubated for 24 hours at 37° C., and then the colonies formed are examined visually.

In assay [2] the test system is Bacillus subtilis NCTC 9 372. The note with it: 40 mg substrate in 400 ml Columbia medium; 24 hours at 37° C.; visual reading. Here is the method: as §1
The subject of assay [3] is Escherichia coli NCTC 10 418. As to conditions: 40 mg substrate in 400 ml Columbia medium, 24 hours at 37° C., visual reading. As to the method: as §1
The subject of assay [4] is Staphylococcus aureus NCTC 6 571. The note with it: 40 mg substrate in 400 ml Columbia medium; 24 hours at 37° C.; visual reading. Here is the method:
as §1

Assay [5] has as its system Staphylococcus aureus NCTC 11 939. The note with it: 40 mg substrate in 400 ml Columbia medium; 24 hours at 37° C.; visual reading. As to the method: as §1
Assay [6] deals with Providencia rettgeri NCTC 7 475. The note with it: 40 mg substrate in 400 ml Columbia medium; 24 hours at 37° C.; visual reading. As to the method:
as §1

Assay [7] relates to Enterobacter cloacae NCTC 11 936. The note with it: 40 mg substrate in 400 ml Columbia medium, 24 hours at 37° C., visual reading. As to the method: as §1
Assay [8] relates to Salmonella typhimurium NCTC 74. As to conditions: 40 mg substrate in 400 ml Columbia medium; 24 hours at 37° C.; visual reading. Here is the method: as §1
In assay [9] the test system is Candida albicans ATCC 90 028. The note with it: 40 mg substrate in 400 ml Columbia medium; 24 hours at 37° C.; visual reading. As to the method:
as §1

The subject of assay [10] is Candida glabrata NCPF 3 943. The note with it: 40 mg substrate in 400 ml Columbia medium; 24 hours at 37° C.; visual reading. As to the method: as §1
The test system of assay [11] is Serratia marcescens NCTC 10 211. As to conditions: 40 mg substrate in 400 ml Columbia medium, 24 hours at 37° C., visual reading. Here is the method: as §1
Assay [12] relates to Listeria monocytogenes NCTC 11 994. The note with it: 40 mg substrate in 400 ml Columbia medium; 24 hours at 37° C.; visual reading. As to the method: as §1
Assay [13] relates to Staphylococcus epidermidis NCTC 11 047. The note with it: 40 mg substrate in 400 ml Columbia medium; 24 hours at 37° C.; visual reading. As to the method: as §1
The subject of assay [14] is Yersinia enterocolitica NCTC 11 176. The note with it: 40 mg substrate in 400 ml Columbia medium; 24 hours at 37° C.; visual reading. As to the method:
as §1

Assay [15] deals with Enterococcus faecium NCTC 7 171. As to conditions: 40 mg substrate in 400 ml Columbia medium; 24 hours at 37° C.; visual reading. As to the method:
as §1

The subject of assay [16] is Pseudomonas aeruginosa NCTC 10 662. As to conditions: 40 mg substrate in 400 ml Columbia medium; 24 hours at 37° C.; visual reading. Here is the method:
as §1

Assay [17] deals with Streptococcus pyogenes NCTC 8 306. The note with it: 40 mg substrate in 400 ml Columbia medium; 24 hours at 37° C.; visual reading. Here is the method: as §1

On to “Glycyl-2-(4′-aminostyryl)-N-methyl-benzothiazolinium iodide [Gly-ASBM^+]”, for which the Growth stood at 1 in [1]; 2 in assay [2]; 2 in assay [3]; 2 in [4]; 1 in [5]; 2 in assay [6]. The Growth in [7] came to 2; in [8], 2; in assay [9] it was 1; in [10] it was 0.5; in assay [11] it was 2; in [12] it was 1. Also, the Growth was 1 in assay [13]; 2 in assay [14]; 1 in [15]; 2 in [16]; 1 in assay [17]. Also, the Color result was “Pale” in assay [1] (colony color), “Pale” in assay [3] (colony color), “Pale” in [7] (colony color) and “Orange” in assay [11] (colony color).
